Results on two molecules are retold here after US20050085408A1, “Drugs ameliorating hypo-hdl cholesterolemia” (priority 2001, published 2005).

Where a SMILES comes first, the peptide text is derived from it. [ ]: non-standard residue; d: D form. Nle = CCCC[C@H](N)C(=O)O

One test relates to THP-1 cells. In words: Acceleration of apoAI-dependent HDL formation (cholesterols and phospholipids transported into the medium). The note with it: apoAI & ALLN-added cells vs control group and apoAI-added group; FIG. 3. Format: cell-based, human. An excerpt: In the same manner as in Arakawa et al., J. Lipid Res., 41, 1952-1962 (2000), THP-1 cells were used for quantitative analysis of cholesterols and phospholipids transported into the medium on the basis of apoAI-dependent HDL formation. ALLN-added cells were compared with those free of ALLN addition.

The next test relates to ABCA1. In words: Increase of the expression of ABCA1 in THP-1-derived macrophages (immunoblotting). The settings on record: for intracellular expression of ABCA1 compared with control cells: THP-1 macrophages. Format: cell-based, human. Here is the method:
THP-1 cells (human leukemia cell, American Type Culture Collection) were cultured for 72 hours in a 10% FBS-RPMI1640 medium (Iwaki Glass Co., Ltd.), together with PMA (phorbol myristate acetate, Wako Pure Chemical Industries Ltd.) to obtain differentiated macrophages. The medium was replaced with 0.2% BSA-RPMI 1640 (Iwaki Glass Co., Ltd.) to which ALLN (50 μM, Sigma) was added, and examined for the time-course of intracellular ABCA1 expression according to the method illustrated herein below.
ALLN-treated cells and control cells cultivated in ALLN-free media were hypotonically disrupted in 5 mM Tris-HCl (pH8.5), and then centrifuged (650 g, for 5 minutes) to precipitate nuclear fractions. The supernatant was centrifuged at 105,000 g for 30 minutes to collect a total membrane fraction. The total membrane was dissolved in an aqueous solution containing 0.9M urea, 0.2% triton X-100 (Wako Pure Chemical Industries Ltd.), and 0.1% dithiothreitol (Wako Pure Chemical Industries Ltd.), followed by addition of 10% lithium dodecyl sulfate solution (Wako Pure Chemical Industries Ltd.) at a volume ratio of 1/4. The resultant was subjected to electrophoretic separation using 10% SDS-7% polyacrylamide gel (Wako Pure Chemical Industries Ltd.). The separated protein was fixed and transferred onto PVDF membrane (Bio-Rad). Each sample was then subjected to immunoblotting with rabbit anti-human ABCA1 antibody (self-made purification by an ordinary method) to quantitate expressed ABCA1 proteins. The obtained bands were read for density and size with Scion Image (image analysis software, Scion) to digitize the results.
In the same manner as in Assay Example 1, THP-1 cells were cultured in a medium to which leupeptin was added in place of ALLN, and compared with control cells non-treated with leupeptin.
Background: In western blotting, separated proteins are transferred to a membrane and probed.

For the molecule `CCCC[C@@H](C=O)NC(=O)[C@H](CC(C)C)NC(=O)[C@H](CC(C)C)NC(C)=O` [ALLN, N-acetyl-leu-leu-norleucinal] (Ac-Leu-Leu-[Nle]-aldehyde), in the test with THP-1 cells, the “amount of apoAI-dependently transported cholesterols” value is on record as “increase” and the “amount of apoAI-dependently transported phospholipids” value is “increase”. Further, in the test with ABCA1 (ALLN 50 μM in medium), the “intracellular expression of ABCA1 compared with control cells” value is given as “remarkable intracellular expression of ABCA1”. Also, in the test with ABCA1 (ALLN 50 μM, 24 hours after addition), the “action of increasing the expression of ABCA1” value is “found even 24 hours after addition”.

For the molecule `CC(=O)N[C@@H](CC(C)C)C(=O)N[C@@H](CC(C)C)C(=O)N[C@H](C=O)CCCNC(=N)N` [leupeptin], in the test with ABCA1 (leupeptin in place of ALLN, FIG. 2 at 7 hours after addition), the “intracellular expression of ABCA1 compared with control cells” value is listed as “remarkable increase in the intracellular expression of ABCA1”. Moreover, the “action of elevating the expression of ABCA1” value in the test with ABCA1 (leupeptin, 24 hours after addition to the medium) was “found even 24 hours after addition”.
